Measurements reported in PubChem BioAssay (NCI).
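The compound was tested at five concentrations on cells cultured in 96-well plates, with a 48-hour exposure period. Abbreviation: GI50, concentration required for 50% inhibition of growth. The concentration for full growth arrest is given as TGI.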

Key:
Experiment in all cases: NCI-60 cell line screen, 48 h
[1] = test system: 786-0 renal
[2] = test system: SK-MEL-2 melanoma
[3] = test system: A549 NSCLC
[4] = test system: OVCAR-5 ovarian
[5] = test system: UACC-257 melanoma
[6] = test system: MDA-MB-468 breast
[7] = test system: BT-549 breast
[8] = test system: HOP-62 NSCLC
[9] = test system: NCI-H522 lung
[10] = test system: MDA-MB-435
[11] = test system: EKVX NSCLC
[12] = test system: HCC-2998 colon
[13] = test system: SNB-19 CNS
[14] = test system: NCI-H23 lung
[15] = test system: HT29 colon
[16] = test system: NCI-H226 lung
[17] = test system: ACHN renal
[18] = test system: SK-MEL-5 melanoma
[19] = test system: MOLT-4 leukemia
[20] = test system: T-47D breast
[21] = test system: HOP-92 NSCLC
[22] = test system: IGROV1 ovarian
[23] = test system: TK-10 renal
[24] = test system: SN12C renal
[25] = test system: M14 melanoma
[26] = test system: SK-OV-3 ovarian
[27] = test system: SF-295 CNS
[28] = test system: HCT-15 colon
[29] = test system: RPMI-8226 leukemia
[30] = test system: NCI/ADR-RES ovarian
[31] = test system: HCT-116 colon
[32] = test system: K-562 leukemia
[33] = test system: SK-MEL-28 melanoma
[34] = test system: OVCAR-3 ovarian
[35] = test system: U251 CNS
[36] = test system: SF-268 CNS
[37] = test system: SR leukemia
[38] = test system: RXF 393 renal
[39] = test system: SNB-75 CNS
[40] = test system: PC-3 prostate
[41] = test system: CCRF-CEM leukemia
[42] = test system: UACC-62 melanoma
[43] = test system: UO-31 renal
[44] = test system: KM12 colon
[45] = test system: NCI-H460 lung
[46] = test system: DU-145 prostate
[47] = test system: OVCAR-4 ovarian
[48] = test system: MCF7 breast
[49] = test system: OVCAR-8 ovarian
[50] = test system: HL-60(TB) leukemia
[51] = test system: MALME-3M melanoma
[52] = test system: A498 renal
[53] = test system: COLO 205 colon
[54] = test system: SF-539 CNS
[55] = test system: CAKI-1 renal

Q: With `COc1ccc2[nH]c(=O)c(CSc3nccc(-c4ccc(OC)c(OC)c4)n3)cc2c1` as the compound, how does the GI50 [1] read?
A: The GI50 was 15.4 µM.

Q: What about the TGI [1] of the same compound?
A: Its TGI is 33.8 µM.

Q: And the GI50 [2]?
A: The GI50 was 15.1 µM.

Q: What about the TGI [2] of the same compound?
A: The TGI was 51.3 µM.

Q: What about the GI50 [3] of the same compound?
A: Its GI50 is 20.9 µM.

Q: And the TGI [3]?
A: Its TGI is 91.5 µM.

Q: What about the GI50 [4] of the same compound?
A: The GI50 was 19.1 µM.

Q: What about the TGI [4] of the same compound?
A: The TGI was 53.5 µM.

Q: What about the GI50 [5] of the same compound?
A: Its GI50 is 28.9 µM.

Q: What about the TGI [5] of the same compound?
A: Its TGI is 99.9 µM.

Q: What about the GI50 [6] of the same compound?
A: Its GI50 is 5.84 µM.

Q: And the TGI [6]?
A: The TGI was 32.2 µM.

Q: And the GI50 [7]?
A: The GI50 was 12.5 µM.

Q: And the TGI [7]?
A: Its TGI is 37.1 µM.

Q: What about the GI50 [8] of the same compound?
A: Its GI50 is 18.4 µM.

Q: What about the TGI [8] of the same compound?
A: Its TGI is 51.3 µM.

Q: And the GI50 [9]?
A: The GI50 was 16.4 µM.

Q: And the TGI [9]?
A: Its TGI is 37.3 µM.

Q: And the GI50 [10]?
A: The GI50 was 23.7 µM.

Q: And the TGI [10]?
A: Its TGI is 73.8 µM.

Q: And the GI50 [11]?
A: The GI50 was 12.9 µM.

Q: What about the TGI [11] of the same compound?
A: The TGI was 44 µM.

Q: And the GI50 [12]?
A: Its GI50 is 18.1 µM.

Q: And the TGI [12]?
A: Its TGI is 57.6 µM.

Q: And the GI50 [13]?
A: Its GI50 is 14.5 µM.

Q: What about the TGI [13] of the same compound?
A: The TGI was 36 µM.

Q: What about the GI50 [14] of the same compound?
A: Its GI50 is 17.6 µM.

Q: What about the TGI [14] of the same compound?
A: The TGI was 45.4 µM.

Q: And the GI50 [15]?
A: Its GI50 is 17.7 µM.

Q: What about the TGI [15] of the same compound?
A: Its TGI is 38.5 µM.

Q: What about the GI50 [16] of the same compound?
A: The GI50 was 12.7 µM.

Q: What about the TGI [16] of the same compound?
A: The TGI was 40.8 µM.

Q: And the GI50 [17]?
A: Its GI50 is 12.1 µM.

Q: And the TGI [17]?
A: Its TGI is 24.4 µM.

Q: And the GI50 [18]?
A: Its GI50 is 9.51 µM.

Q: What about the TGI [18] of the same compound?
A: Its TGI is 37.4 µM.

Q: What about the GI50 [19] of the same compound?
A: Its GI50 is 9.07 µM.

Q: What about the TGI [19] of the same compound?
A: Its TGI is 42.9 µM.

Q: What about the GI50 [20] of the same compound?
A: Its GI50 is 10.9 µM.

Q: And the TGI [20]?
A: The TGI was 67.4 µM.

Q: And the GI50 [21]?
A: The GI50 was 2.01 µM.

Q: What about the TGI [21] of the same compound?
A: The TGI was 8.63 µM.

Q: And the GI50 [22]?
A: Its GI50 is 17.7 µM.

Q: And the TGI [22]?
A: The TGI was 41.6 µM.

Q: What about the GI50 [23] of the same compound?
A: The GI50 was 13.3 µM.

Q: And the TGI [23]?
A: The TGI was 33.7 µM.

Q: What about the GI50 [24] of the same compound?
A: Its GI50 is 11.2 µM.

Q: What about the TGI [24] of the same compound?
A: The TGI was 42.7 µM.

Q: What about the GI50 [25] of the same compound?
A: The GI50 was 25.5 µM.

Q: And the TGI [25]?
A: Its TGI is 74.4 µM.

Q: What about the GI50 [26] of the same compound?
A: Its GI50 is 25.5 µM.

Q: What about the TGI [26] of the same compound?
A: Its TGI is 60.7 µM.

Q: What about the GI50 [27] of the same compound?
A: Its GI50 is 17.2 µM.

Q: And the TGI [27]?
A: The TGI was 43 µM.

Q: And the GI50 [28]?
A: The GI50 was 15.4 µM.

Q: What about the TGI [28] of the same compound?
A: The TGI was 46.9 µM.

Q: And the GI50 [29]?
A: Its GI50 is 6.26 µM.

Q: And the TGI [29]?
A: Its TGI is 88 µM.

Q: And the GI50 [30]?
A: Its GI50 is 14.2 µM.

Q: What about the TGI [30] of the same compound?
A: The TGI was 41.2 µM.

Q: What about the GI50 [31] of the same compound?
A: The GI50 was 15.7 µM.

Q: What about the TGI [31] of the same compound?
A: Its TGI is 49.2 µM.

Q: What about the GI50 [32] of the same compound?
A: The GI50 was 7.33 µM.

Q: What about the TGI [32] of the same compound?
A: The TGI was 29.6 µM.

Q: And the GI50 [33]?
A: Its GI50 is 20.3 µM.

Q: What about the TGI [33] of the same compound?
A: Its TGI is 41.5 µM.

Q: What about the GI50 [34] of the same compound?
A: The GI50 was 15.2 µM.

Q: What about the TGI [34] of the same compound?
A: The TGI was 37.3 µM.

Q: And the GI50 [35]?
A: Its GI50 is 22.4 µM.

Q: And the TGI [35]?
A: Its TGI is greater than 100 µM.

Q: And the GI50 [36]?
A: The GI50 was 14.7 µM.

Q: And the TGI [36]?
A: The TGI was 47.8 µM.

Q: What about the GI50 [37] of the same compound?
A: The GI50 was 15.9 µM.

Q: And the TGI [37]?
A: Its TGI is greater than 100 µM.

Q: And the GI50 [38]?
A: Its GI50 is 6.08 µM.

Q: And the TGI [38]?
A: The TGI was 40.1 µM.

Q: And the GI50 [39]?
A: The GI50 was 3.43 µM.

Q: And the TGI [39]?
A: Its TGI is 25.9 µM.

Q: What about the GI50 [40] of the same compound?
A: Its GI50 is 11.9 µM.

Q: And the TGI [40]?
A: Its TGI is 25.7 µM.

Q: And the GI50 [41]?
A: Its GI50 is 10.5 µM.

Q: What about the TGI [41] of the same compound?
A: Its TGI is greater than 100 µM.

Q: What about the GI50 [42] of the same compound?
A: The GI50 was 15 µM.

Q: What about the TGI [42] of the same compound?
A: The TGI was 35.3 µM.

Q: What about the GI50 [43] of the same compound?
A: Its GI50 is 10.4 µM.

Q: And the TGI [43]?
A: Its TGI is 23.7 µM.

Q: And the GI50 [44]?
A: Its GI50 is 21.8 µM.

Q: What about the TGI [44] of the same compound?
A: Its TGI is 62.1 µM.

Q: And the GI50 [45]?
A: The GI50 was 17.4 µM.

Q: What about the TGI [45] of the same compound?
A: Its TGI is 40.3 µM.

Q: What about the GI50 [46] of the same compound?
A: Its GI50 is 14.3 µM.

Q: And the TGI [46]?
A: Its TGI is 32.4 µM.

Q: What about the GI50 [47] of the same compound?
A: Its GI50 is 16.5 µM.

Q: What about the TGI [47] of the same compound?
A: The TGI was 78.2 µM.

Q: What about the GI50 [48] of the same compound?
A: The GI50 was 18.7 µM.

Q: What about the TGI [48] of the same compound?
A: The TGI was 43 µM.

Q: And the GI50 [49]?
A: Its GI50 is 21 µM.

Q: And the TGI [49]?
A: The TGI was greater than 100 µM.

Q: And the GI50 [50]?
A: The GI50 was 35.2 µM.

Q: What about the TGI [50] of the same compound?
A: Its TGI is greater than 100 µM.

Q: And the GI50 [51]?
A: The GI50 was 19.5 µM.

Q: And the TGI [51]?
A: Its TGI is 40 µM.

Q: What about the GI50 [52] of the same compound?
A: Its GI50 is 14.7 µM.

Q: What about the TGI [52] of the same compound?
A: Its TGI is 37.5 µM.

Q: And the GI50 [53]?
A: The GI50 was 32.1 µM.

Q: And the TGI [53]?
A: The TGI was greater than 100 µM.

Q: And the GI50 [54]?
A: The GI50 was 12.3 µM.

Q: And the TGI [54]?
A: The TGI was 25.7 µM.

Q: What about the GI50 [55] of the same compound?
A: The GI50 was 11 µM.

Q: What about the TGI [55] of the same compound?
A: The TGI was 32.8 µM.
